# System: weedy target
# Assay: Greenhouse Paraquat spray on weedy target
# Assay type: in vivo
# Conditions: 24 hours post spray
# Description: Turning to FIG. 8, recovery of replicates of plants using compositions of the present invention is shown. The control is in the upper left and the remaining plants are colonized with single Trichoderma strains, with 3 replicate plants per strain.
structure (smiles),measurement,value
"C[n+]1ccc(-c2cc[n+](C)cc2)cc1.[Cl-].[Cl-] [Paraquat, N,N′-dimethyl-4,4′-bipyridinium dichloride]",killing effect of the Paraquat application,complete killing effect

# — patent US20200345002A1, “COMPOSITIONS AND METHODS FOR INDUCING CROP CHANGES BY LEVERAGING THE EFFECTS OF AN APPLIED AGRICULTURAL CHEMICAL” (ADVANCED BIOLOGICAL MARKETING, INC., priority 2017, published 2020)
